This is an account of results in ChEMBL document CHEMBL1201862, “PubChem BioAssay data set” (2004).

Test systems include DU-145; MOLT-4; HOP-62; CCRF-CEM; SNB-75; A549; HCT-15; SW-620; MDA-MB-435; NCI-H522; NCI-H226; SF-295; NCI-H23; MDA-MB-231; ACHN; SR; NCI/ADR-RES; HCT-116; PC-3; SNB-19.
Experiment in all cases: growth of human tumour cells (NCI), 48 h

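Tested at 5 concentrations; 48 h exposure; 96-well plates; endpoints linearly interpolated, else capped at highest concentration. GI50 marks 50% less growth.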 The source made the active and inactive calls. Cut-off read from the data, not from the text of the source: active = GI50 up to about 1.1 µM and inactive = higher. A value given as a limit tells only on which side of the number the result lay.

Take `O=C(O)COc1c(Cl)cc(Cl)c2cccnc12`: the GI50 in the experiment with DU-145, in the experiment with MOLT-4, in the experiment with HOP-62, in the experiment with CCRF-CEM, in the experiment with SNB-75 and in the experiment on A549 was > 100 µM (inactive) each time. The GI50 is greater than 100 µM with HCT-15; > 100 µM (inactive) in the experiment on SW-620; > 100 µM (inactive) in the experiment with MDA-MB-435; > 100 µM (inactive) in the experiment on NCI-H522; > 100 µM (inactive) in the experiment with NCI-H226; > 100 µM (inactive) in the experiment with SF-295. For the same compound, the GI50 in the experiment with NCI-H23, in the experiment on MDA-MB-231, in the experiment on ACHN, in the experiment with SR, with NCI/ADR-RES and in the experiment with HCT-116 was > 100 µM (inactive) in each case. The GI50 in the experiment on PC-3 and with SNB-19 was > 100 µM (inactive) in each case.
As for `Cc1sc2c(c1C)C(=O)c1cccn1-2`, the GI50 was 95.3 µM (inactive) in the experiment with DU-145; 38.8 µM (inactive) in the experiment with MOLT-4; > 100 µM (inactive) in the experiment with HOP-62; 56.1 µM (inactive) in the experiment with CCRF-CEM; 35.2 µM (inactive) in the experiment with SNB-75; 60.5 µM (inactive) in the experiment with A549. The GI50 in the experiment with HCT-15 is greater than 100 µM; with SW-620, 72.6 µM (inactive); in the experiment with MDA-MB-435, 56.6 µM (inactive); in the experiment on NCI-H522, 92 µM (inactive); in the experiment with NCI-H226, > 100 µM (inactive); with SF-295, > 100 µM (inactive). For the same compound, the GI50 in the experiment on MDA-MB-231 is 96.4 µM (inactive); in the experiment on ACHN it was > 100 µM (inactive); in the experiment with SR, 19.3 µM (inactive); in the experiment with NCI/ADR-RES, > 100 µM (inactive); in the experiment on HCT-116, 61.2 µM (inactive); in the experiment with PC-3, 65.3 µM (inactive). For the same compound, in the experiment with SNB-19, the GI50 was > 100 µM (inactive).
On to `CC12CCC(C(=O)OC1=O)C2(C)C` (stereo not drawn), for which the GI50 in the experiment on DU-145 is > 100 µM (inactive); in the experiment with MOLT-4 it was > 100 µM (inactive); in the experiment with HOP-62, > 100 µM (inactive); in the experiment with CCRF-CEM, > 100 µM (inactive); in the experiment with SNB-75, 82.4 µM (inactive); in the experiment on HCT-15, greater than 100 µM. Further, the GI50 is > 100 µM (inactive) in the experiment with SW-620; > 100 µM (inactive) with MDA-MB-435; > 100 µM (inactive) in the experiment with NCI-H522; > 100 µM (inactive) with NCI-H226; > 100 µM (inactive) in the experiment with SF-295; 1.67 µM (inactive) in the experiment with NCI-H23. For the same compound, the GI50 in the experiment on MDA-MB-231 was > 100 µM (inactive); in the experiment with ACHN, > 100 µM (inactive); in the experiment with SR, 0.628 µM (active); in the experiment on NCI/ADR-RES it was > 100 µM (inactive); in the experiment on HCT-116 it was > 100 µM (inactive); in the experiment with PC-3 it was > 100 µM (inactive). In addition, in the experiment on SNB-19, the GI50 is > 100 µM (inactive).
As to `COc1cc2c(cc1OC)C1C3CCCCC3CCN1CC2` (stereo not drawn), the GI50 was > 100 µM (inactive) in the experiment on DU-145; > 100 µM (inactive) in the experiment with MOLT-4; > 100 µM (inactive) in the experiment with HOP-62; > 100 µM (inactive) in the experiment on CCRF-CEM; 18.3 µM (inactive) in the experiment with SNB-75; 91.2 µM (inactive) in the experiment on A549. Moreover, the GI50 is greater than 100 µM with HCT-15; > 100 µM (inactive) with SW-620; > 100 µM (inactive) with MDA-MB-435; > 100 µM (inactive) in the experiment on NCI-H522; 88.1 µM (inactive) with NCI-H226; 83.8 µM (inactive) in the experiment on SF-295. Besides, the GI50 is > 100 µM (inactive) with NCI-H23; > 100 µM (inactive) in the experiment with MDA-MB-231; > 100 µM (inactive) in the experiment with ACHN; > 100 µM (inactive) with SR; > 100 µM (inactive) in the experiment with NCI/ADR-RES; 48.6 µM (inactive) with HCT-116. The GI50 with PC-3 and in the experiment on SNB-19 was > 100 µM (inactive) throughout.
As for `CCCCCCCCCCCCCCCCCCNc1nc(=O)n(C2CC(O)C(COP(=O)(O)OCC3OC(n4ccc(N)nc4=O)C(O)C3O)O2)cc1F` (stereo not drawn), the GI50 in the experiment with DU-145 was 25.1 µM (inactive); in the experiment with MOLT-4, 25.9 µM (inactive); in the experiment on HOP-62, 18.7 µM (inactive); in the experiment with CCRF-CEM it was > 100 µM (inactive); in the experiment on SNB-75, > 100 µM (inactive); in the experiment with A549 it was 3.25 µM (inactive). In addition, the GI50 is 12.7 µM in the experiment on HCT-15; > 100 µM (inactive) in the experiment with SW-620; > 100 µM (inactive) in the experiment on MDA-MB-435; 3.8 µM (inactive) in the experiment with NCI-H522; > 100 µM (inactive) with NCI-H226; > 100 µM (inactive) in the experiment on SF-295. Besides, the GI50 is 16 µM (inactive) with NCI-H23; 27.7 µM (inactive) in the experiment with MDA-MB-231; 18.7 µM (inactive) in the experiment with ACHN; > 100 µM (inactive) with SR; 17.9 µM (inactive) in the experiment with NCI/ADR-RES; 9.35 µM (inactive) in the experiment with HCT-116. In addition, the GI50 in the experiment with PC-3 was 28.6 µM (inactive); in the experiment on SNB-19, 10.6 µM (inactive).
As to `COc1ccc2c3c1OC1C34CCN(C)C(C2)C4=CC(I)C1(OC)OC` (stereo not drawn), the GI50 with DU-145 is 10.8 µM (inactive); with MOLT-4 it was 3.15 µM (inactive); with HOP-62 it was 8.77 µM (inactive); with CCRF-CEM, 1.32 µM (inactive); in the experiment on SNB-75, 19.6 µM (inactive); with A549, 22.2 µM (inactive). Further, the GI50 is 11.8 µM in the experiment on HCT-15; 2.68 µM (inactive) with SW-620; 4.12 µM (inactive) with MDA-MB-435; 5.27 µM (inactive) in the experiment on NCI-H522; 18.6 µM (inactive) in the experiment with NCI-H226; 41.5 µM (inactive) in the experiment with SF-295. Further, the GI50 with NCI-H23 was 7.41 µM (inactive); in the experiment on MDA-MB-231 it was 18.5 µM (inactive); with ACHN, 11.3 µM (inactive); with SR, 2.36 µM (inactive); in the experiment with NCI/ADR-RES, 41.5 µM (inactive); with HCT-116 it was 3.93 µM (inactive). Besides, the GI50 was 10.2 µM (inactive) in the experiment on PC-3 and 16.2 µM (inactive) in the experiment on SNB-19.
For `[N-]=[N+]=Nc1c([N+](=O)[O-])c(Cl)nc2ccccc12`, the GI50 was 2.13 µM (inactive) in the experiment on DU-145; 0.587 µM (active) in the experiment on MOLT-4; 19.8 µM (inactive) with HOP-62; 0.376 µM (active) in the experiment with CCRF-CEM; 8.93 µM (inactive) in the experiment on SNB-75; 16.8 µM (inactive) in the experiment with A549. Also, the GI50 with HCT-15 is 1.83 µM; in the experiment with SW-620, 0.48 µM (active); in the experiment with MDA-MB-435 it was 2.38 µM (inactive); with NCI-H522, 0.293 µM (active); in the experiment on NCI-H226, 10.6 µM (inactive); in the experiment on SF-295, 19.4 µM (inactive). In addition, the GI50 with NCI-H23 is 2.6 µM (inactive); in the experiment on MDA-MB-231, 1.85 µM (inactive); in the experiment on ACHN, 1.76 µM (inactive); with SR, 0.604 µM (active); in the experiment on NCI/ADR-RES it was 2.56 µM (inactive); in the experiment with HCT-116, 1.63 µM (inactive). The GI50 was 1.91 µM (inactive) with PC-3 and 14.4 µM (inactive) in the experiment on SNB-19.
With `CC(=O)NNC(=S)N/C=C1/C(=O)Oc2ccccc2C1=O`, the GI50 with DU-145, in the experiment with MOLT-4, with HOP-62, with CCRF-CEM, with SNB-75 and with A549 was > 100 µM (inactive) each time. The GI50 in the experiment on HCT-15 was greater than 100 µM; in the experiment on SW-620, > 100 µM (inactive); in the experiment on MDA-MB-435, > 100 µM (inactive); with NCI-H522, > 100 µM (inactive); with NCI-H226 it was > 100 µM (inactive); in the experiment on SF-295 it was > 100 µM (inactive). For the same compound, the GI50 in the experiment with NCI-H23, in the experiment with MDA-MB-231, with ACHN, in the experiment on SR, with NCI/ADR-RES and with HCT-116 was > 100 µM (inactive) each time. The GI50 in the experiment with PC-3 and in the experiment on SNB-19 was > 100 µM (inactive) throughout.
Turning to `CCOc1ccc(NCC2CC/C(=C\c3ccc(O)cc3)C2=O)cc1` (stereo not drawn), the GI50 is 25.7 µM (inactive) in the experiment with DU-145; 4.17 µM (inactive) with MOLT-4; 37.8 µM (inactive) in the experiment on HOP-62; 5.87 µM (inactive) with CCRF-CEM; 14.5 µM (inactive) with SNB-75; 21.2 µM (inactive) with A549. Besides, the GI50 in the experiment with HCT-15 is 6.9 µM; in the experiment with SW-620 it was 3.03 µM (inactive); in the experiment with MDA-MB-435, 18.4 µM (inactive); in the experiment on NCI-H522 it was 6.14 µM (inactive); in the experiment with NCI-H226 it was 38.2 µM (inactive); in the experiment on SF-295, 24.5 µM (inactive). For the same compound, the GI50 is 23.3 µM (inactive) with NCI-H23; 19.2 µM (inactive) in the experiment with MDA-MB-231; 17 µM (inactive) in the experiment with ACHN; 2.19 µM (inactive) with SR; 18 µM (inactive) in the experiment with NCI/ADR-RES; 9.64 µM (inactive) with HCT-116. The GI50 in the experiment with PC-3 is 16.9 µM (inactive); with SNB-19, 25.5 µM (inactive).
As to `CC(C)(C)c1ccc(S(=O)(=O)N2C(c3cccc(C4CC[C@@H](C(=O)O)N4S(=O)(=O)c4ccc(C(C)(C)C)cc4)c3)CC[C@H]2C(=O)O)cc1` (stereo partly drawn), the GI50 is 75.3 µM (inactive) in the experiment on DU-145; 33 µM (inactive) with MOLT-4; 98.4 µM (inactive) in the experiment on HOP-62; 33 µM (inactive) with CCRF-CEM; > 100 µM (inactive) in the experiment with SNB-75; 66.7 µM (inactive) in the experiment on A549. The GI50 in the experiment on HCT-15 was 43.2 µM; in the experiment with SW-620, 69.3 µM (inactive); in the experiment on MDA-MB-435, 54.7 µM (inactive); in the experiment with NCI-H522, 38.7 µM (inactive); with NCI-H226, 71.9 µM (inactive); with SF-295, 45.8 µM (inactive). Also, the GI50 was 40.2 µM (inactive) with NCI-H23; > 100 µM (inactive) with MDA-MB-231; 57.4 µM (inactive) in the experiment with ACHN; 33.1 µM (inactive) in the experiment on SR; > 100 µM (inactive) with NCI/ADR-RES; 38.1 µM (inactive) in the experiment with HCT-116. The values for the GI50 in the experiment on PC-3 and with SNB-19 were 32.7 µM (inactive) and 59.3 µM (inactive), respectively.
